We go through one compound from US20090220612A1, “HOLLOW-FIBRE-BASED BIOCOMPATIBLE DRUG DELIVERY DEVICE WITH ONE OR MORE LAYERS” (priority 2005, published 2009).

This data set is described as follows: Polymer degradation and in vitro 5-FU release from hollow fibres in PBS pH 7.4. The class given is physicochemical. The following applies: FIG. 30. The procedure: 0.07 g of each hollow fibre was weighed and immersed in 20 ml of de-ionised water in a screw-topped bottle. These were then placed on an orbital shaker maintained at a temperature of 37° C. The pH of the degradation medium was measured every two days to monitor the rate of generation of acidic byproducts. A Jenway (Model 3051) pH meter was used for this purpose.
In vitro drug release studies were carried out in phosphate buffer saline (PBS) at both room temperature (˜25° C.) and 37° C. PBS solution was applied to keep the degrading system at a constant pH 7.4 value. Every type of polymer fibre was cut into 10 pieces, with 5 cm each. At room temperature, each fibre piece was first sealed at one end with bio-adhesive, and was injected with liquid 5-FU with a syringe pump from the other open end before it was sealed. […] The amount of drug release was measured every 24 hours within the 3 months. The quantitative measurement of the amount of drug released was measured with a UV Spectrometer. A calibration curve was performed as the concentration versus absorbance for the drug in buffer (wavelength of absorption, □=266 nm (5-FU) and λ=298 nm (cisplatin and carboplatin) or atomic absorption spectroscopy) which was plotted in a logarithmic scale gave a straight line. […] The absorbance of the drug was noted. […]

Each structure is given as a SMILES string.

For the compound `O=c1[nH]cc(F)c(=O)[nH]1` [5-FU, fluorouracil], the “effect on degradation and drug release rate of polymer hollow fibres” value is “accelerates the degradation and drug release rate”.
